Literature values, collected in paper PMC7070898 (Clinical and Translational Science, 2019).

Columns and labels:
BTK = BTK (Homo sapiens, UniProt Q06187); settings: single dose, cited from earlier work
[1] = patients receiving acalabrutinib ref 12; cited from earlier work

BTK, sequence (Q06187 whole entry): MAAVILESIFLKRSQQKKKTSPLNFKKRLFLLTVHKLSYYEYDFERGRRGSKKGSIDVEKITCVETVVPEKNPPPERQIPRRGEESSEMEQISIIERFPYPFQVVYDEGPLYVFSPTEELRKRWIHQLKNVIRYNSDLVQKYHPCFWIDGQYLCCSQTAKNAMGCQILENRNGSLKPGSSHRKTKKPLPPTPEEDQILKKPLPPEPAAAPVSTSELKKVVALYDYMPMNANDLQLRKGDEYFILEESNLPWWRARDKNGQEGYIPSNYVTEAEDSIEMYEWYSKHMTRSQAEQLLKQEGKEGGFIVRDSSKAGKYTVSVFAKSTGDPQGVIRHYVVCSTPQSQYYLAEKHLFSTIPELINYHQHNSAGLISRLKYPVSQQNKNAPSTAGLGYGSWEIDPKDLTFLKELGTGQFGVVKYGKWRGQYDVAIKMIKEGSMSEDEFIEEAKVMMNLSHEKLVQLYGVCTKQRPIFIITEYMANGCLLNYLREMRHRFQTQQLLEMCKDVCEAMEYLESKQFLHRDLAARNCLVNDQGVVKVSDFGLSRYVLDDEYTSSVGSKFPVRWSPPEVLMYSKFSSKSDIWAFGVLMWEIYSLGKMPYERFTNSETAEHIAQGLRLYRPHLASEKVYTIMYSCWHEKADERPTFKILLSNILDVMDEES

C=CC(=O)Nc1cccc(Nc2nc(Nc3ccc(OCCOC)cc3)ncc2F)c1 [CC‐292]
BTK occupancy (BTK; five of six healthy subjects, ≤ 4 hours after administration ref 21): > 98% | duration of complete or near‐complete BTK occupancy (BTK; healthy subjects ref 21): 8 to 24 h

CC#CC(=O)N1CCC[C@H]1c1nc(-c2ccc(C(=O)Nc3ccccn3)cc2)c2c(N)nccn12 [acalabrutinib]
atrial fibrillation/flutter, patients [1]: 3%
